Test results published in patent US11897849B1, “N′-(2-(5-phenyl-1,3,4-oxadiazol-2-ylthio)acetoxy)-1-naphthimidamide as antimicrobial compound” (KING FAISAL UNIVERSITY, priority 2023, dated 2024).

How the values were obtained:
Escherichia coli = assay: Agar plate disc-diffusion, antibacterial; type: cell-based
Description: (§1) The agar plate disc-diffusion method was applied. […] The discs were then placed onto the surface of agar plates (nutrient agar for bacteria and Sabouraud's dextrose agar for fungi) seeded with the test organism. Each plate contained 15 of the agar medium, previously seeded with 0.2 mL of the broth culture of each organism pre-grown for 18 hours. The plates were incubated at 37° C. for 48 hours and 72 hours for fungi. The inhibition zones were measured in mm. Discs impregnated with DMSO were used as a control, and their inhibition zone was subtracted from the tested compound's actual inhibition zone.

Pseudomonas aeruginosa = assay: Agar plate disc-diffusion, antibacterial; type: cell-based
Description: as §1

Staphylococcus aureus = assay: Agar plate disc-diffusion, antibacterial; type: cell-based
Description: as §1

Bacillus cereus = assay: Agar plate disc-diffusion, antibacterial; type: cell-based
Description: as §1

Aspergillus flavus = assay: Agar plate disc-diffusion, antifungal; type: cell-based
Description: as §1

[1] = test system: Chrysosporium keratinophilum; assay: Agar plate disc-diffusion, antifungal; type: cell-based
Description: The agar plate disc-diffusion method was applied. Sterilized filter papers (6 mm in diameter) were wetted with 10 μL of a solution of N′-(2-(5-phenyl-1,3,4-oxadiazol-2-ylthio)acetoxy)-2-naphthimidamide (3) to be tested, containing 10 mg/mL in DMSO, and the discs were allowed to air dry. The discs were then placed onto the surface of agar plates (nutrient agar for bacteria and Sabouraud's dextrose agar for fungi) seeded with the test organism. Each plate contained 15 of the agar medium, previously seeded with 0.2 mL of the broth culture of each organism pre-grown for 18 hours. The plates were incubated at 37° C. for 48 hours and 72 hours for fungi. The inhibition zones were measured in mm. Discs impregnated with DMSO were used as a control, and their inhibition zone was subtracted from the tested compound's actual inhibition zone.

[2] = A = concentration of comp. = 10,000 μL
[3] = B = concentration of comp. = 30.000 μL
[4] = C = concentration of comp. = 50,000 μL
[5] = column A (key only in Table 1: 10,000 μL)
[6] = column B (key only in Table 1: 30.000 μL)
[7] = column C (key only in Table 1: 50,000 μL)

O=C(O)c1cn(C2CC2)c2cc(N3CCNCC3)c(F)cc2c1=O [Cip., ciprofloxacin, reference compound]
inhibition zone (Escherichia coli; [2]): 30 mm
inhibition zone (Escherichia coli; [3]): 39 mm
inhibition zone (Escherichia coli; [4]): 60 mm
inhibition zone (Pseudomonas aeruginosa; [2]): 29 mm
inhibition zone (Pseudomonas aeruginosa; [3]): 30 mm
inhibition zone (Pseudomonas aeruginosa; [4]): 53 mm
inhibition zone (Staphylococcus aureus; [2]): 43 mm
inhibition zone (Staphylococcus aureus; [3]): 44 mm
inhibition zone (Staphylococcus aureus; [4]): 53 mm
inhibition zone (Bacillus cereus; A = concentration of comp.): 29 mm
inhibition zone (Bacillus cereus; [3]): 30 mm
inhibition zone (Bacillus cereus; [4]): 42 mm

N/C(=N\OC(=O)CSc1nnc(-c2ccccc2)o1)c1cccc2ccccc12 [Compound 3, N′-(2-(5-phenyl-1,3,4-oxadiazol-2-ylthio)acetoxy)-1-naphthimidamide]
inhibition zone (Escherichia coli; [2]): 35 mm
inhibition zone (Escherichia coli; [3]): 39 mm
inhibition zone (Escherichia coli; [4]): 45 mm
inhibition zone (Pseudomonas aeruginosa; [2]): 22 mm
inhibition zone (Pseudomonas aeruginosa; [3]): 30 mm
inhibition zone (Pseudomonas aeruginosa; [4]): 37 mm
inhibition zone (Staphylococcus aureus; [2]): 29 mm
inhibition zone (Staphylococcus aureus; [3]): 35 mm
inhibition zone (Staphylococcus aureus; [4]): 44 mm
inhibition zone (Bacillus cereus; A = concentration of comp.): 19 mm
inhibition zone (Bacillus cereus; [3]): 26 mm
inhibition zone (Bacillus cereus; [4]): 35 mm
inhibition zone (Aspergillus flavus; [5]): 15 mm
inhibition zone (Aspergillus flavus; [6]): 22 mm
inhibition zone (Aspergillus flavus; [7]): 30 mm
melting point: 177 to 178 °C
inhibition zone [1, 5]: 29 mm
inhibition zone [1, 6]: 37 mm
inhibition zone [1, 7]: 43 mm
